The text below walks through data of paper PMC2903893 (Journal of the American Chemical Society, 2009).

Data set [1] has as its system PKCβII. Particulars: read-out: PKCβII IC50; ref 29 (ruboxistaurin), 30 (enzastaurin); cited from earlier work.
Data set [2] relates to PKCβI. Particulars: read-out: PKCβI IC50; ref 29 (ruboxistaurin), 30 (enzastaurin); cited from earlier work.
Data set [3] concerns PKA. The following applies: read-out: PKA IC50; cited from earlier work.
Data set [4] relates to PKC. The following applies: read-out: PKC IC50, cited from earlier work.
Data set [5] concerns PPK. Particulars: read-out: PPK IC50; cited from earlier work.
For data set [6], the target named is protein kinase C (PKC). The format is biochemical. Particulars: read-out: PKC IC50; whole enzyme with regulatory and catalytic domains.
Data set [7] has as its system nine cancer cell lines. As to the kind of experiment: cells. The format is cell-based.
The test system of data set [8] is JHU-012 Head&Neck. As to the kind of experiment: Cancer cell growth inhibition with and without light, JHU-012. It is filed as cell-based. The following applies: JHU-012, with vs without light exposure.
The format of data set [9] is physicochemical. Particulars: 65 °C.
The nature of data set [10]: Absorption of the perylenequinone chromophore. The format is physicochemical.
The conditions of data set [11]: cited from earlier work.

Where two headings read alike, the source gives them in different places. Where only a bound is given, the exact number is not on record here.

As for `Cn1cc(C2=C(c3cn(C4CCN(Cc5ccccn5)CC4)c4ccccc34)C(=O)NC2=O)c2ccccc21` [enzastaurin], the IC50 in data set [1] and in [2] was 30 nM in each case.

Consider `COc1c(C[C@@H](C)OC(=O)Oc2ccc(O)cc2)c2c3c(C[C@@H](C)OC(=O)c4ccccc4)c(OC)c(=O)c4c(O)cc(OC)c(c5c(OC)cc(O)c(c1=O)c52)c43` [1c, Calphostin C, reference compound], for which the IC50 is above 100000 nM in data set [3], 50 to 460 nM in data set [4] and above 100000 nM in data set [5].

On to Hypocrellin [ent-4], for which, in [6], the IC50 amounted to 400 nM.

Turning to `COc1c2c3c4c(c(OC)c(=O)c5c(O)cc(OC)c(c6c(OC)cc(O)c(c1=O)c63)c54)[C@@H](C(C)=O)[C@@](C)(O)C2` [compound 4, Hypocrellin A], in data set [6], the IC50 was 4500 nM. For the same compound, the “growth inhibition, hypocrellin A (4) compared with hypocrellin (ent-4)” value in data set [7] is “nearly identical activity”.

With `CN[C@@H]1C[C@H]2O[C@@](C)([C@@H]1OC)n1c3ccccc3c3c4c(c5c6ccccc6n2c5c31)C(=O)NC4` [staurosporin], the IC50 in data set [4] (catalytic domain-acting inhibitor) was […].

`CN(C)C[C@@H]1CCn2cc(c3ccccc32)C2=C(C(=O)NC2=O)c2cn(c3ccccc23)CCO1` [ruboxistaurin]: the figures for the half-maximal inhibitory concentration (IC50) in data set [1] and in data set [2] were […] and 4.7 nM, respectively.

Regarding `COc1c(CC(C)O)c2c3c(CC(C)O)c(OC)c(=O)c4c(O)cc5c(c6c(cc(O)c(c1=O)c62)OCO5)c43` (stereo not shown) [compound 3, Cercosporin], the photopotentiation in [8] is given as 4.9 fold. Besides, the “ΔG^‡ atropisomerization” value is 28.2 kcal/mol in data set [9] (DMSO); 27.4 (benzene) kcal/mol in data set [9] (benzene); 27.4 kcal/mol in data set [9] (benzene, listed as cercosporin); 27.0[5] (acetylacetone) kcal/mol in data set [11] (acetylacetone). Besides, in [10], the “ε^670” value was determined as 160 M⁻¹ cm⁻¹. Moreover, the “atropisomerization t1/2” value in data set [11] (60 °C, DMSO) was 48 h. Moreover, the 50% inhibitory concentration (IC50) in data set [3] was above 500000 nM; in data set [6], 600 nM; in data set [4], 600 to 1300 nM; in data set [5], above 180000 nM. In addition, the CC50 in data set [7] (read-out: CC50 across the series of cell lines) lay within 120 to 270 nM.

Turning to `COc1c(O)c2c(=O)cc(OC)c3c4c(OC)cc(=O)c5c(O)c(OC)c(CC(C)O)c(c(c1CC(C)O)c23)c54` (single isomer, unassigned; (-)) [(−)-1, Calphostin D], the IC50 in data set [4] (Table 3 footnote a, ref [23]) is 6400 nM.

For `COc1c(O)c2c(=O)cc(OC)c3c4c(OC)cc(=O)c5c(O)c(OC)c(CC(C)OC(=O)c6ccccc6)c(c(c1CC(C)OC(=O)c1ccccc1)c23)c54` (stereo not shown) [1a, calphostin A], in [4] (ref 22b), the IC50 is 250 nM.

Broadly, the IC50 is the concentration at which inhibition is half-maximal. In general, CC50 refers to the concentration at which the toxic effect on the cells reaches its halfway point.
